The structures appear in SMILES notation.

Results on one molecule are retold here after patent US11559490B2, “Pharmaceutical formulation” (Merck Patent GmbH, priority 2017, dated 2023).

The test system of series [1] is A549. The settings on record: 150 mg/kg oral, 10 min prior to each 2 Gy fraction, 5 days (10 Gy). As for the experimental part: (§1) The therapeutic relevance of DNA-PK inhibition by the drug substance as such was investigated in vivo in combination with ionizing radiation (IR), a clinically established DSB-inducing treatment. The drug substance was tested for activity in six xenograft mouse models of human cancer. The models were chosen from different cancer indications (colon, lung, head and neck, pancreatic), and histological subtypes (adeno, squamous, large cell). Ionizing radiation was administered using a fractionated schedule of 2 Gy per day administered over five consecutive days (total radiation dose=10 Gy). […] 10 min prior to each fraction of radiation (ONC397-1-2AZ, ONC397-1-3AZ, ONC397-1-4AZ, ONC397-1-5AZ, ONC397-1-8AZ).
(§2) The radiotherapy enhancing effect was quantified across the tested models by the time to reaching 400% initial volume for the 150 mg/kg study arms. The resulting Kaplan-Meier plots were compared by the log-rank test.

Series [2] relates to NCI-H460. The conditions noted are these: 150 mg/kg oral, 10 min prior to each 2 Gy fraction, 5 days (10 Gy). How it is done:
as §1, §2

Series [3] concerns HCT116. The settings on record: 150 mg/kg oral, 10 min prior to each 2 Gy fraction, 5 days (10 Gy). As for the experimental part:
as §1, §2

Series [4] relates to DNA-PK autophosphorylation in cancer cell lines. The settings on record: cited from earlier work.
Series [5] in a line: Solubility of drug substance in water and simulated gastric fluids. It counts as physicochemical.
The subject of series [6] is six xenograft mouse models of human cancer. Briefly: Xenograft mouse models of human cancer, combination with ionizing radiation. Format: in vivo. The settings on record: all models, oral administration with fractionated radiation 2 Gy x 5. How it is done:
as §1, §2
(In general: Xenograft models place foreign cells or tissue in a host animal.)

In series [7] the target is DNA-dependent protein kinase (DNA-PK) (Homo sapiens, UniProt P78527). The conditions noted are these: cited from earlier work.

For the molecule `COc1ccc([C@@H](O)c2cc(-c3ncnc4cc(N5CCOCC5)ccc34)c(F)cc2Cl)nn1` [drug substance, (S)-[2-chloro-4-fluoro-5-(7-morpholin-4-yl-quinazolin-4-yl)phenyl]-(6-methoxy-pyridazin-3-yl)methanol], the “enhancement ratio (time to reaching 400% initial volume)” value came out at 1.5 in series [1], 2.6 in series [2] and 1.5 in series [3]. In series [4], the “inhibition of DNA-PK autophosphorylation” value is “potent inhibition”. In series [5], the “solubility in water and simulated gastric fluids” value is on record as “poor solubility”. The “enhancement of the radiation effect” value in series [6] was “strong enhancement of the radiation effect”. For the same molecule, the “inhibition of DNA-PK activity” value in series [7] was “potent and selective inhibitor”.
